# Test results from ChEMBL document CHEMBL1201862, “PubChem BioAssay data set” (2004).
# The source made the active and inactive calls.
# Columns and labels:
# [1] = target: Melanin-concentrating hormone receptor 1 (Homo sapiens, UniProt Q99705); assay: Fluorescence-based counterscreen for antagonists of the G-protein coupled receptor 7 (GPR7): cell-based high throughput dose response assay to identify antagonists of the melanin-concentrating hormone receptor 1 (MCHR1).; type: functional
# [2] = target: T1, Neuropeptides B/W receptor type 1 (Homo sapiens, UniProt P48145); assay: Fluorescence-based dose response cell-based high throughput screening assay to identify antagonists of the G-protein coupled receptor 7 (GPR7). [Related pubchem assays: 1952 (Screening assay (GPR7 antagonists).), 1880 (Summary AID.)]; type: functional
# T1 sequence (P48145 whole entry): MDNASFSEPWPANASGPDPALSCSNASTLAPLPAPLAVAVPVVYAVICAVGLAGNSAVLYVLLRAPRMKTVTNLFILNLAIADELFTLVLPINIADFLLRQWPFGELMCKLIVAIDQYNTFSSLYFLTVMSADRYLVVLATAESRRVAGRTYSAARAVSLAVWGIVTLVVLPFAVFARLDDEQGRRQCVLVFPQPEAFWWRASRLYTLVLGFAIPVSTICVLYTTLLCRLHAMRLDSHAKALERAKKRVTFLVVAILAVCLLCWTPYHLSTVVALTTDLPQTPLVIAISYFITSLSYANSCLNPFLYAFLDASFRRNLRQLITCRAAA
# [3] = target: Neurotensin receptor type 1 (Homo sapiens, UniProt P30989); type: functional;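 also: Image-based confirmatory dose-response assay measuring agonist activity at NTR1; NTR1-expressing U2OS osteosarcoma cells imaged for beta-arrestin GFP spot formation; agonist potency where compounds increase beta-arrestin recruitment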
# [4] = system: Streptococcus sp. 'group A'; assay: Streptococcus pyogenes SK(-)GAS viability under kanamycin – luminescence, BacTiterGlo, confirmation, counter-screen for streptokinase expression inhibitor project, dose response (AID 1900); type: functional, organism-based
# [5] = microbe, parasite or virus in culture; type: functional; settings: Mycobacterium tuberculosis
# Streptokinase A = target: T2, Streptokinase A (Streptococcus pyogenes serotype M1, UniProt P10520); assay: viability-normalized secreted streptokinase activity reduction – plasminogen activation absorbance, OD405, dose response (AID 1914); type: functional, Streptococcus pyogenes M1 GAS;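 also: secreted streptokinase activity via plasminogen activation per viability signal from cell pellet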
# T2 sequence (P10520 whole entry): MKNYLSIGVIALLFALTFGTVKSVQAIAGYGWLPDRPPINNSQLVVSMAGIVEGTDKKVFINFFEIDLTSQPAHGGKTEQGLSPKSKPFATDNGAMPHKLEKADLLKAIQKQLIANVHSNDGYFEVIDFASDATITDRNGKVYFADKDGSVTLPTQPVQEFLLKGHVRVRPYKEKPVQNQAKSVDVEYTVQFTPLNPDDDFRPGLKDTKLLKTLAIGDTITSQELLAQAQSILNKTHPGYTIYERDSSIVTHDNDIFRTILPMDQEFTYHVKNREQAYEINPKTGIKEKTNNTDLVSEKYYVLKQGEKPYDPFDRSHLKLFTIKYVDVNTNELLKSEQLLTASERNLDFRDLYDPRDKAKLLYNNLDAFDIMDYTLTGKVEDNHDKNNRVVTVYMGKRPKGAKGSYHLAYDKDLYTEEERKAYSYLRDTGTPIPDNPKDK
# Streptococcus = assay: GAS UMAA2166 growth inhibition – luminescence, BacTiterGlo, counter-screen for streptokinase expression inhibitor project, dose response (AID 1915); type: functional, organism-based;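 also: potency for reduction of bacterial viability or growth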
# [6] = target: T3, Neuropeptide Y receptor type 1 (Homo sapiens, UniProt P25929); type: functional;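 also: HEK293 cells with a CNG channel challenged with NPY then isoproterenol; potency as antagonist that reverses NPY suppression of cAMP signal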
# T3 sequence (P25929 whole entry): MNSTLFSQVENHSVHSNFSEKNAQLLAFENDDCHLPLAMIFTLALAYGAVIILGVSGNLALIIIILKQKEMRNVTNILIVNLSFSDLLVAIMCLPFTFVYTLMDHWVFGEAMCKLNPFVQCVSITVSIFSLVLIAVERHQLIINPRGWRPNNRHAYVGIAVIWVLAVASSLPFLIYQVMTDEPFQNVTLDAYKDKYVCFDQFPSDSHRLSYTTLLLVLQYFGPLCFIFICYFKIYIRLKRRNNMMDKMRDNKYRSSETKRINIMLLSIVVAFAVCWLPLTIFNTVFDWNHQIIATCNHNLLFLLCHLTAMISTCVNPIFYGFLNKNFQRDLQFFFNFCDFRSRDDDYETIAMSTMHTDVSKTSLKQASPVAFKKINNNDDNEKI
# [7] = target: T4, Neuropeptide Y receptor type 2 (Homo sapiens, UniProt P49146); type: functional, cell-based;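 also: HEK293 cells expressing the receptor and a CNG channel; stimulus was NPY near EC95 followed by isoproterenol to raise cAMP; antagonist potency measured as restoring cAMP signal that NPY suppresses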
# T4 sequence (P49146 whole entry): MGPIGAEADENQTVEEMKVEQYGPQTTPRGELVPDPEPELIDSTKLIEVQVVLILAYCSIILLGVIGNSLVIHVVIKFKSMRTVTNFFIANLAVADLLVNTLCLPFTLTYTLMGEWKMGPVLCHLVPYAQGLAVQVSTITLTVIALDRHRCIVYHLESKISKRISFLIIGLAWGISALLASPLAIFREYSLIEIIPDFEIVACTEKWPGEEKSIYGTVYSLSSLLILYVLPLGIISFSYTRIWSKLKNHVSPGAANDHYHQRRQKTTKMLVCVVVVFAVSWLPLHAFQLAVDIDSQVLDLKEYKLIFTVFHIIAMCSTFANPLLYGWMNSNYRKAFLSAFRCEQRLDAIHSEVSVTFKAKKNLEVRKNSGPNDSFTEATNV
# Mucolipin-3 = target: T5, Mucolipin-3 (Homo sapiens, UniProt Q8TDD5); assay: Dose response cell-based high-throughput screening assay for agonists of the transient receptor potential channel ML3 (TRPML3). [Related pubchem assays: 1526, 1424, 1448 ]; type: functional
# T5 sequence (Q8TDD5 whole entry): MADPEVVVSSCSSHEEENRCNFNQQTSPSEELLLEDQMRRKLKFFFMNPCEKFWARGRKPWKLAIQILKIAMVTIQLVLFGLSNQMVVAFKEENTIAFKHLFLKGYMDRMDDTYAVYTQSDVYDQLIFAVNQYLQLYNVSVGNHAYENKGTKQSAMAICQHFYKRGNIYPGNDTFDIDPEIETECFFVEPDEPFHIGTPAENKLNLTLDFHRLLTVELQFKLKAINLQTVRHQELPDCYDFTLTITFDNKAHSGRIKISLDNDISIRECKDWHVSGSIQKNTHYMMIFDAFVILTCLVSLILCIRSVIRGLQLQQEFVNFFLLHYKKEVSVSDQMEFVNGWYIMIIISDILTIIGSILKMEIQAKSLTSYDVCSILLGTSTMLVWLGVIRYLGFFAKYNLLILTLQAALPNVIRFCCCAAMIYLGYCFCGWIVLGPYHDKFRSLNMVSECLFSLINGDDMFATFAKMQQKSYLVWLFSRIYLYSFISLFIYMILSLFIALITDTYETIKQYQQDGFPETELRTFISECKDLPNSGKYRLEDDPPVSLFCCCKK
# Ion channel NompC = Ion channel NompC (Danio rerio, UniProt Q7T1G6); assay: Fluorescence counterscreen assay for TRPML3 agonists: dose response cell-based high-throughput screening assay to identify agonists of the transient receptor potential channel N1 (TRPN1). [Related pubchem assays: 1526, 1424, 1448 ]; type: functional
# [8] = target: Photoreceptor-specific nuclear receptor (Homo sapiens, UniProt Q9Y5X4); type: functional;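 also: potency for compounds that break the NR2E3 corepressor complex and count as activators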
# [9] = target: Peroxisome proliferator-activated receptor gamma/Nuclear receptor corepressor 2 (Homo sapiens, UniProt P37231+Q9Y618); type: functional
# Nonstructural protein 1 = Nonstructural protein 1 (Influenza A virus, UniProt Q194T2); type: functional, Influenza A virus (A/California/07/2009(H1N1))
# [10] = target: NACHT, LRR and PYD domains-containing protein 3 (Homo sapiens, UniProt Q96P20); assay: NALP3 inhibitors in yeast, dose response, luminescent (AID 488799); type: functional
# [11] = target: T6, Corticotropin-releasing factor receptor 2/Corticotropin-releasing factor-binding protein (Homo sapiens, UniProt P24387+Q13324); assay: activators of CRF receptor 2 with binding protein – uHTS hits, confirmation (AID 602473); type: functional; settings: read-out: EC50_Mean
# T6 sequence (Q13324 whole entry): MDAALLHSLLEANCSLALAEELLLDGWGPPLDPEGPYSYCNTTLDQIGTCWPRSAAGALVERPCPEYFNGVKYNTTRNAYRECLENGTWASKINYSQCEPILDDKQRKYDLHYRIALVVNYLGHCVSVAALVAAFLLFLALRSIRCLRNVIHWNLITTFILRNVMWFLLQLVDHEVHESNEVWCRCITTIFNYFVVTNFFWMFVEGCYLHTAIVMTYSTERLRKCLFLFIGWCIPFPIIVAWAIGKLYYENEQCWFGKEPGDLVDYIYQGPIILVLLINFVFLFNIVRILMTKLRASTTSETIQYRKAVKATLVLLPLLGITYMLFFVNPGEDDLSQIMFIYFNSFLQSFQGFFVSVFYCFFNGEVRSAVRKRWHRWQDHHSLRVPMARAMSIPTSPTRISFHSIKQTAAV
# T6 sequence (P24387 whole entry): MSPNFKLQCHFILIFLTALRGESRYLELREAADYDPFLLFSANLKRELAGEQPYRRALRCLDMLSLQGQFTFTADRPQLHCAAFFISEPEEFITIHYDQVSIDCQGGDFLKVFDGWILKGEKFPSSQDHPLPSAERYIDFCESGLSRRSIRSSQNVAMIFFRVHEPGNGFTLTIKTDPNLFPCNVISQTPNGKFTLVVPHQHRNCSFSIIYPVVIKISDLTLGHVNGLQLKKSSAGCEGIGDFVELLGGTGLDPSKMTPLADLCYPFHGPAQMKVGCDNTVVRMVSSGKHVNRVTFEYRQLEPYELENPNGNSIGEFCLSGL
# [12] = target: T6, Corticotropin-releasing factor receptor 2/Corticotropin-releasing factor-binding protein; assay: Dose Response confirmation of uHTS hits for small molecule antagonists of the CRF-binding protein and CRF-R2 receptor complex.; type: functional; settings: read-out: IC50_Mean
# [13] = blockers of CRF-binding protein–CRF-R2 complex – cell-based, uHTS hits, 384-well, dose response (AID 651639); type: functional, Homo sapiens; settings: read-out: IC50_Mean
# [14] = target: T7, RNA-binding protein pos-1 (Caenorhabditis elegans, UniProt G5EF15); assay: disruptors of C. elegans POS-1 RNA interaction – biochemical, fluorescence polarization, dose response (AID 1964);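 also: purified POS-1 fused to maltose binding protein made in E. coli; potency of compounds blocking POS-1 binding to fluorescent RNA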
# T7 sequence (G5EF15 whole entry): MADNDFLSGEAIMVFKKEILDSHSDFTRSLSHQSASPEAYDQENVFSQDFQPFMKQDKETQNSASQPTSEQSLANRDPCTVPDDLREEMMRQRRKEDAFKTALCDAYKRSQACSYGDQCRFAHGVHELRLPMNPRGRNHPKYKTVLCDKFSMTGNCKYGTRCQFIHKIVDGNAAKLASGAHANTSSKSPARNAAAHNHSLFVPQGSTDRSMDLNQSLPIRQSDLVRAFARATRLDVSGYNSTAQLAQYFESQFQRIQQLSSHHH
# [15] = target: T8, Zinc finger protein mex-5 (Caenorhabditis elegans, UniProt Q9XUB2); assay: potency of MEX-5 RNA-binding blockers – biochemical, C. elegans, fluorescence polarization, dose response (AID 1960)
# T8 sequence (Q9XUB2 whole entry): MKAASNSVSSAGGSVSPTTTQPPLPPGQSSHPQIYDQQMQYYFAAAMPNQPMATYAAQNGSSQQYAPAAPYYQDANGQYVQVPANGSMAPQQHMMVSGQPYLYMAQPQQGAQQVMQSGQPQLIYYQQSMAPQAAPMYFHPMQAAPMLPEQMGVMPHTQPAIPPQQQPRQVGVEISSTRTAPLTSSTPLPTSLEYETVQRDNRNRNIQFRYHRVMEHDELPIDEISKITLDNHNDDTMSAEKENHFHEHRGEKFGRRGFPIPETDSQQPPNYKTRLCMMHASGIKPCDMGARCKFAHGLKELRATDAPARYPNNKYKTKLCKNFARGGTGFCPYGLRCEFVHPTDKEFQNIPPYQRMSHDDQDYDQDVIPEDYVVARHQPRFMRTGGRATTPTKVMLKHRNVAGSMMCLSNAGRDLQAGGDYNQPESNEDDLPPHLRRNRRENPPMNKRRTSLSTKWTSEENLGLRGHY
# HT-1080 = assay: HT1080 cell viability loss – fluorescence readout (AID 620); type: functional, cell-based; settings: Homo sapiens
# [16] = HEK-293T cell viability reduction – luminescence, B-cell screen hits, cytotoxicity control for BCR NF-kB inhibitor project, dose response (AID 489021); type: functional, cell-based;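 also: HEK-293T cells carrying an NF-kB luciferase reporter; cells exposed to compound for about 14 hours before viability readout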
# HEK293 = assay: EBV LMP1 TES2 canonical NF-kB signalling blockers – cell-based, HEK293, luciferase, cherry-pick, dose response (AID 588343); type: functional; settings: Homo sapiens
# [17] = target: Luciferin 4-monooxygenase (Photinus pyralis, UniProt P08659); assay: Counter Screen for Luciferase-based Assay Positives. [Related pubchem assays: 620, 618, 411 ]
# Photoreceptor-specific nuclear receptor, sequence (Q9Y5X4 whole entry): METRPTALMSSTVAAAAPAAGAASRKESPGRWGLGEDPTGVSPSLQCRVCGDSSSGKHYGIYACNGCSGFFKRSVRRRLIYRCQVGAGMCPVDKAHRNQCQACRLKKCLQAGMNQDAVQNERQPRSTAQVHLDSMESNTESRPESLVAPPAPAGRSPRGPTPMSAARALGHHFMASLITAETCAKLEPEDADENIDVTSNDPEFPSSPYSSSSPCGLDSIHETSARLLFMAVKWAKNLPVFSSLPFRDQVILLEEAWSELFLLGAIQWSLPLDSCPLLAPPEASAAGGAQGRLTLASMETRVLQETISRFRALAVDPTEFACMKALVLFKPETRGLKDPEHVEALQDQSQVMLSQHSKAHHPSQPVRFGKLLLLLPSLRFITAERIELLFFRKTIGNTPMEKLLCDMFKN
# Ion channel NompC, sequence (Q7T1G6 whole entry): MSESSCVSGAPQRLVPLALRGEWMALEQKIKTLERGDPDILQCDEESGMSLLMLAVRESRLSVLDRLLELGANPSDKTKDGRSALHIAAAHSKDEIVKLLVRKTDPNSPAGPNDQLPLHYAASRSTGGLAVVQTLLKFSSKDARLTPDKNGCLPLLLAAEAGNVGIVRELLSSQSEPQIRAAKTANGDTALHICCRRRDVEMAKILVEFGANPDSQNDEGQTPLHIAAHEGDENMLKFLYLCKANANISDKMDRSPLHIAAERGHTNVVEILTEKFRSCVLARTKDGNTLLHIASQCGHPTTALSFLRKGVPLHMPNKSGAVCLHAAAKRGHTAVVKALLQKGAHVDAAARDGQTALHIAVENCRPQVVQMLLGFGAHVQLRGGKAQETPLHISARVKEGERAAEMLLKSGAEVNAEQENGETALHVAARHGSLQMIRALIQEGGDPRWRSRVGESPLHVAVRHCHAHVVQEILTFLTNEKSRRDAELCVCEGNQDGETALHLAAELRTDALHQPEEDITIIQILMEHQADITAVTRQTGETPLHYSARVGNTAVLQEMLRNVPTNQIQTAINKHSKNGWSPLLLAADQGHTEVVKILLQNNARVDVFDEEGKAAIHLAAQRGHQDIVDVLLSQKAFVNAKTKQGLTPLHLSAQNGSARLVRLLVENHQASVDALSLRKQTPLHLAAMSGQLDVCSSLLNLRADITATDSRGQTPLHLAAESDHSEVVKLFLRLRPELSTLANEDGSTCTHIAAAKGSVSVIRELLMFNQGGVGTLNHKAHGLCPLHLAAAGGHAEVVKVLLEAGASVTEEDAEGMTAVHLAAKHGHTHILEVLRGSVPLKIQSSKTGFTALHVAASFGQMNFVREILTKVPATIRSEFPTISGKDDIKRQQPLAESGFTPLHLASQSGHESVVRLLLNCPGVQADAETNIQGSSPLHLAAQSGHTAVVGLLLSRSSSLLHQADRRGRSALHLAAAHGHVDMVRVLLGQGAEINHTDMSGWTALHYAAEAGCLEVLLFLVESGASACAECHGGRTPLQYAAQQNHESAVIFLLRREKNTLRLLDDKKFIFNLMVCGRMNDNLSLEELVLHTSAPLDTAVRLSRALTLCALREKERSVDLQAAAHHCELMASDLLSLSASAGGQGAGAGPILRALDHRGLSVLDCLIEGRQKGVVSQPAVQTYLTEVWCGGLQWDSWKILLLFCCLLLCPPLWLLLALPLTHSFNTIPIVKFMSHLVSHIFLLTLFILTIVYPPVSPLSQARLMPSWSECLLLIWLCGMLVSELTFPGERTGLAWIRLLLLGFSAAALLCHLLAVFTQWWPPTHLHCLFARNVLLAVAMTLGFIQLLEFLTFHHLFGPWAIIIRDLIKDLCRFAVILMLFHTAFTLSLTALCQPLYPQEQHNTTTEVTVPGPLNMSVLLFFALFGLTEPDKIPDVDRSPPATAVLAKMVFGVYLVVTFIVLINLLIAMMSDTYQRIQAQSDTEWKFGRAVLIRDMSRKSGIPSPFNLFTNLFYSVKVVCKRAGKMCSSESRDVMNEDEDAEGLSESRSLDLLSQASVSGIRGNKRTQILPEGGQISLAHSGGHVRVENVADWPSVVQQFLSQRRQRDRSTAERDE
# Peroxisome proliferator-activated receptor gamma/Nuclear receptor corepressor 2, sequence (P37231 whole entry): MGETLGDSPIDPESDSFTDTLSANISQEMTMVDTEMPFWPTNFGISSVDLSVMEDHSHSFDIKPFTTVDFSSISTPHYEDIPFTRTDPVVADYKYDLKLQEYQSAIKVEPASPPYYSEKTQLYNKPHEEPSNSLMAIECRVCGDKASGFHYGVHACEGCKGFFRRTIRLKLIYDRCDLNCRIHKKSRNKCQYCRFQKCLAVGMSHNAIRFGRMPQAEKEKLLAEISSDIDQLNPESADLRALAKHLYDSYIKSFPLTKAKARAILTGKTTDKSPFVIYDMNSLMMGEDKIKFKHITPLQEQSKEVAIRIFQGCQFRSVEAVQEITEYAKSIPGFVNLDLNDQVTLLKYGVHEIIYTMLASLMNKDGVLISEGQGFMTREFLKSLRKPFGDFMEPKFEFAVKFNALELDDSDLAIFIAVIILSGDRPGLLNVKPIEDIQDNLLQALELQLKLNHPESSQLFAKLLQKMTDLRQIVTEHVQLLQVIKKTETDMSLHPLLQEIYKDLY
# Peroxisome proliferator-activated receptor gamma/Nuclear receptor corepressor 2, sequence (Q9Y618 whole entry): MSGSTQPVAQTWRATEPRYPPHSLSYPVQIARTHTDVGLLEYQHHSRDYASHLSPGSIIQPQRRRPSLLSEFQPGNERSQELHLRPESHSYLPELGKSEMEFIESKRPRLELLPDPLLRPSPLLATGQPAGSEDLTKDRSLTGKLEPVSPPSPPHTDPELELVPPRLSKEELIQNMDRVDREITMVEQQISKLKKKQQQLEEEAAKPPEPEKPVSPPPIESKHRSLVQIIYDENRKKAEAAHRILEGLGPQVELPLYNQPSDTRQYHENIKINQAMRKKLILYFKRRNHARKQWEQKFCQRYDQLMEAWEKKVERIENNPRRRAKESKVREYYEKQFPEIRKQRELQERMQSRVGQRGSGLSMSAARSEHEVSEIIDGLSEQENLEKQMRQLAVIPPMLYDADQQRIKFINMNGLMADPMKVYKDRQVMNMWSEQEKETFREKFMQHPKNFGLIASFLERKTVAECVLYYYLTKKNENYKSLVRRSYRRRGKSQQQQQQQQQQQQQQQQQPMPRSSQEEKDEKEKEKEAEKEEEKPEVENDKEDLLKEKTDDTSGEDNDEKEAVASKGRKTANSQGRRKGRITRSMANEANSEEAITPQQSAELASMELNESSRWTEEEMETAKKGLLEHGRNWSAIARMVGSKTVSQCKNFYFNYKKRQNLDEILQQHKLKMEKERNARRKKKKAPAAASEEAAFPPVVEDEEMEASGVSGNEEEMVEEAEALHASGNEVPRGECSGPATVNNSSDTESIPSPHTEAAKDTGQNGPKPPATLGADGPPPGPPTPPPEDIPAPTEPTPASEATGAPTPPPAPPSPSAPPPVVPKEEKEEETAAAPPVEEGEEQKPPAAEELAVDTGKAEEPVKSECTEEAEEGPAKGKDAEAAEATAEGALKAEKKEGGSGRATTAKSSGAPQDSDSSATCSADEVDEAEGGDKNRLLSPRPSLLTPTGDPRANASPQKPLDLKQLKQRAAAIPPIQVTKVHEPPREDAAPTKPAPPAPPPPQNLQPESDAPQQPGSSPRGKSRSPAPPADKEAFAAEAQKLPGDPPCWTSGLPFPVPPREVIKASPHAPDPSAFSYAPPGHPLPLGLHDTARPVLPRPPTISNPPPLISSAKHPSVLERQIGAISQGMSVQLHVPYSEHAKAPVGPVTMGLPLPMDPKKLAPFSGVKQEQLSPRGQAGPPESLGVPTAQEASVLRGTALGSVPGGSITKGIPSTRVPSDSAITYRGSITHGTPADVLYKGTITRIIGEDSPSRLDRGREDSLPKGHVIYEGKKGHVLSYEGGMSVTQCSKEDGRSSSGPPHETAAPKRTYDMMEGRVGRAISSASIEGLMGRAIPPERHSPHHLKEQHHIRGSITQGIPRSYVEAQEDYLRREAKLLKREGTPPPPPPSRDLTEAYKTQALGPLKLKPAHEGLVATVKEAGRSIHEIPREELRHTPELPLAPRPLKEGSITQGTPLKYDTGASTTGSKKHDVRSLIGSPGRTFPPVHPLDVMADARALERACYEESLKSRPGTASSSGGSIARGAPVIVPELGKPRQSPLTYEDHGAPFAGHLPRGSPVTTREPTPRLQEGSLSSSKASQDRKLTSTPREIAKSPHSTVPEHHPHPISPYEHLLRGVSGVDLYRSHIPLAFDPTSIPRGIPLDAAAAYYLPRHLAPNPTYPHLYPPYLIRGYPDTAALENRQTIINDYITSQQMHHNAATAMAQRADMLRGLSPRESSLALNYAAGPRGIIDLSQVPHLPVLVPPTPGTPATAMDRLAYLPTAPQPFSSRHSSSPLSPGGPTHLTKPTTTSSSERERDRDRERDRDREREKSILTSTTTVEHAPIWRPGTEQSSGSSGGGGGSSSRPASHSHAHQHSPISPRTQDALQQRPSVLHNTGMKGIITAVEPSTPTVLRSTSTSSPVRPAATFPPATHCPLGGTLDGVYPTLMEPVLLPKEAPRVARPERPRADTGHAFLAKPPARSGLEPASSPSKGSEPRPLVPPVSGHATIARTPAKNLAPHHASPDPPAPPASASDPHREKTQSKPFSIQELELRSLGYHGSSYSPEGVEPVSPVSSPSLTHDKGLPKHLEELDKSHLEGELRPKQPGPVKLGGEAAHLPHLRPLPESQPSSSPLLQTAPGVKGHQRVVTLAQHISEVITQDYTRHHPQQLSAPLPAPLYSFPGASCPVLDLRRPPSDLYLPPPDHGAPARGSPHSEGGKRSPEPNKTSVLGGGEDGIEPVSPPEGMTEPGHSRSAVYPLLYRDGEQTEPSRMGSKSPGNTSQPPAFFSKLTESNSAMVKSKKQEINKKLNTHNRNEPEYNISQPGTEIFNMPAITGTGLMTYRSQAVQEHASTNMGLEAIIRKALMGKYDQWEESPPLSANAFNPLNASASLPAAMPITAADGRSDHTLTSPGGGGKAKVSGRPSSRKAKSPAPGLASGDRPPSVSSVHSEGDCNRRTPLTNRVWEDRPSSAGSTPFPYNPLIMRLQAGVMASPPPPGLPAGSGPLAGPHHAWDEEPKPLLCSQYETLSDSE
smiles,measurement,setting,value
CCCCN(C)C(=O)c1nc2ccccn2c1CN1CCN(C/C=C/c2ccccc2)CC1,IC50,[1],16.6 µM (not active)
same,IC50,[2],> 43.8 µM (not active)
O=C(Nc1ccc2oc(-c3ccccc3F)nc2c1)c1ccc2c(c1)OCCO2,EC50,[3],31.1 µM (inactive)
Oc1cccc(-c2nc3ccc4ccccc4c3c3c2CCC3)c1,EC50,[4],10 µM (active)
same,CC50,[5],> 40 µM (active)
same,EC50,Streptokinase A,27.8 µM (active)
same,EC50,Streptococcus,53.6 µM (active)
same,IC50,[6],7.68 µM (active)
same,IC50,[7],5.22 µM (active)
O=C(Cc1ccc(Cl)c(Cl)c1)Nc1ccccc1N1CCOCC1,EC50,Mucolipin-3,2.89 µM (active)
same,EC50,Ion channel NompC,13.4 µM (not active)
O=C(C1=C(O)C(=O)N(CCN2CCOCC2)C1c1cccs1)c1cc2ccccc2o1 (stereo unspecified),IC50,[8],> 39.8 µM (not active)
same,IC50,[9],6.71 µM (active)
O=C(Nc1cccc(Cl)c1)c1cc(N=Nc2ccc([N+](=O)[O-])cc2Cl)ccc1O,IC50,Nonstructural protein 1,22.1 µM (active)
same,IC50,[10],1.34 µM (active)
COC(=O)c1ccc(CSc2nc3ccccc3c(=O)n2-c2ccccc2)o1,EC50,[11],> 53 µM (inactive)
same,IC50,[12],858 nM (active)
same,IC50,[13],13.6 µM (active)
same,IC50,[6],5.21 µM (active)
same,IC50,[7],3.14 µM (active)
CC(=O)Nc1ccc(NC(=O)C(C)OC(=O)/C(C#N)=C/c2ccc(N(C)C)cc2)cc1 (stereo unspecified),IC50,[8],> 39.8 µM (not active)
same,EC50,[14],26.9 µM (active)
same,IC50,[9],> 39.8 µM (not active)
same,EC50,[15],86.3 µM (inconclusive)
CCc1ccc(-c2nnn(CCC(=O)OC)n2)cc1,EC50,HT-1080,> 50 µM (not active)
same,IC50,[16],> 80 µM (inactive)
same,AC50,HEK293,16.2 µM (active)
same,EC50,[17],5.58 µM (active)
CCn1c(=O)cc(OCC(=O)N(C)C2CCCCC2)c2ccccc21,IC50,[16],> 80 µM (inactive)
Cc1ccc(N(C)S(=O)(=O)c2ccc(C)cc2)cc1,EC50,Mucolipin-3,5.1 µM (active)
same,EC50,Ion channel NompC,> 29.9 µM (not active)
